The record followed here is PMC5923120, “Acylhydrazones as Antifungal Agents Targeting the Synthesis of Fungal Sphingolipids” (Antimicrobial Agents and Chemotherapy, 2018).

The subject of series [1] is C. neoformans. Description: In vitro susceptibility testing (MIC80). The format is cell-based, Cryptococcus neoformans. As to the method: MICs were determined by following the methods of the Clinical and Laboratory Standards Institute (CLSI), with modifications. […] The compounds were serially diluted from 32 to 0.03 μg/ml in a 96-well plate. The inoculum was prepared as described in CLSI protocol M27A3 guidelines ([39]). […] The MICs were determined as the lowest concentration of the compound that inhibited 80% of growth compared to the control.

The subject of the next series is HepG2. Description: In vitro toxicity (MTT), HepG2. The series is classed as cell-based. The note with it: Homo sapiens, cytotoxicity. As to the method:
The murine macrophage cell line J774 and human cancer cell lines A549 and HepG2 were maintained in DMEM containing 10% fetal bovine serum (FBS) and 1% penicillin-streptomycin. At passage 7, 10^5 cells/well in DMEM containing 10% FBS were transferred into 96-well plates and cultured for 14 h for the cells to adhere to the wells. The compounds were added to the cells at concentrations ranging from 0.03 to 128 μg/ml. The wells without the compound served as controls. […] After 24 or 48 h, the supernatant was removed and 50 μl of 5-mg/ml 3-(4,5-dimethylthiazol-2-yl)-2,5-diphenyltetrazoliumbromide (MTT) solution in phosphate-buffered saline (PBS) was added to each well. The plates were incubated for an additional 4 h. The formazan crystal formed inside the cell was dissolved by adding 50 μl of dimethyl sulfoxide (DMSO). The optical density was measured at 570 nm.

The subject of series [2] is C. neoformans. In words: Mouse model of cryptococcosis. The series is classed as in vivo, mice. Particulars: for mice that survived: treatment immediately after intranasal infection, 40 days.
Series [3] can be described thus: Pharmacokinetic studies (plasma concentration). The series is classed as in vivo, mice. As to the method: For i.p. study, BHBM and D13 were dissolved in a mixture of cremophore-ethanol (1:1) to prepare a 10-mg/ml stock solution. The stock solution was diluted in PBS to obtain 200-μg/ml and 400-μg/ml solutions for i.p. administrations in C3H/HeN mice (n = 3). The compounds were administered to control (healthy) mice or immunocompromised mice infected with P. murina at doses of 0.8 mg/kg and 1.6 mg/kg via tail vein injection or intraperitoneal injection in a final volume of 100 μl. The mice were sacrificed and blood samples were collected predose and 0.5, 1, 2, 4, 8, 12, and 24 h after administration into K2EDTA-containing tubes. The samples were centrifuged immediately, and plasma was collected and stored at −80°C until bioanalysis. Plasma samples were extracted using methylene chloride.
Briefly, 50 μl of the plasma sample was taken into a glass vial, and 10 μl of internal standard N′-(3-bromobenzylidene)-4-hydroxybenzohydrazide was added. After the contents of the glass vial were mixed, 1 ml of methylene chloride was added to the vial and the samples were vortex mixed for 30 s, followed by centrifugation for 5 min. Eight hundred microliters of supernatant then was transferred to another tube and evaporated to dryness using a centrifugal evaporator. The residue was reconstituted in 100 μl acetonitrile-water (50:50) solution, mixed, and transferred to mass spectrometry vials. Separation was performed under isocratic reverse-phase chromatographic conditions using a Waters XBridge C18 column (3.5 μm; 2.1 by 100 mm) (Waters, Milford, MA), a Finnigan Surveyor MS pump (Thermo Fisher Scientific), and a Finnigan Micro AS autosampler (Thermo Fisher Scientific).
The mobile phase consisted of water-acetonitrile with 0.1% formic acid (50:50) run at a flow rate of 200 μl/min. Five-microliter aliquots then were analyzed using an LTQ-FT liquid chromatography-tandem mass spectrometer (LC-MS/MS) with the electrospray source in the positive ion mode (Thermo Fisher Scientific). For i.v. and p.o. administration, the formulation consisted of a 0.5-mg/ml solution of PEG 400-DMA (9:1). A volume of 1.21 mg of D13 was dissolved in 0.242 ml of […] (DMA) by vortexing and sonication, and then 2.178 ml of PEG440 was added with vortexing and sonication until a clear solution was obtained. For a 4-mg/ml solution of PEG 400-DMA (9:1), 2.13 mg of D13 was dissolved in 0.053 ml of DMA by vortexing and sonication, and then 0.479 ml of PEG 440 was added with vortexing and sonication until a clear solution was obtained. For i.v. and p.o. administration of BHBM, the formulation consisted of a 0.5-mg/ml solution of 5% DMSO and 5% solutol in water. A volume of 0.98 mg of BHBM was dissolved in 0.098 ml of DMSO with vortexing and sonication. […]

For a further series, the system named is Candida albicans A39. In words: Synergistic assay (FIC), CA. The format is cell-based. The protocol: (§1) Synergistic activity was assayed by calculating the fractional inhibitory index (FIC). Briefly, in a 96-well plate, drug A (D13) was serially diluted from 16 to 0.015 μg/ml (11 dilutions), whereas drug B (either fluconazole, amphotericin B, caspofungin, itraconazole, or voriconazole) was serially diluted from 12 to 0.19 μg/ml for fluconazole, 5 to 0.078 μg/ml for amphotericin B, or 8 to 0.007 μg/ml for caspofungin, itraconazole, or voriconazole (seven dilutions). The FIC was defined as (MIC combined/MIC drug A alone) + (MIC combined/MIC drug B alone). Synergism was categorized with the following scale: strongly synergistic effect, FIC of <0.5; synergistic effect, FIC of <1; additive effect, FIC of 1; no effect, FIC between 1 and 2; antagonistic effect, FIC of >2.

The subject of a further series is Candida albicans 3022. In words: Synergistic assay (FIC), CA Flu-R. The format is cell-based. As to the method:
as §1

The subject of a further series is Candida krusei. In words: Synergistic assay (FIC), CK Flu R1. The format is cell-based. The note with it: Pichia kudriavzevii. The protocol: as §1
Another series relates to Candida krusei ATCC 6258. Description: Synergistic assay (FIC), CK Flu R2. The format is cell-based. The note with it: Pichia kudriavzevii, ATCC6258. As to the method: as §1
The test system of series [4] is Cryptococcus neoformans H99. Description: Synergistic assay (FIC), CN. The series is classed as cell-based. The protocol: as §1
Series [5] has as its system Aspergillus fumigatus 293. In words: Synergistic assay (FIC), AF. The series is classed as cell-based. The protocol:
as §1

The conditions of series [6]: mouse, with NADPH.
Protocol: To test for metabolic stability, 40 μl of 10 mM NADPH solution was added to each well of a 96-well plate. The final concentration of NADPH was 1 mM. The mixture was prewarmed at 37°C for 5 min. The negative-control samples were prepared by replacing NADPH solutions with 40 μl of ultrapure H2O. The negative control was used to exclude the misleading factor that resulted from the instability of the chemical itself. Samples with NADPH were prepared in duplicate. Negative controls were prepared in singlet. The reaction was started with the addition of 4 μl of 200 μM control compound or test compound solutions. […] An aliquot of 90 μl of the supernatant was mixed with 90 μl of ultrapure H2O and then used for LC-MS/MS analysis.
Where [7] appears, read: Cryptococcus neoformans, ChemBridge compounds, Supplementary Table 1, read-out: MIC80.
Where [8] appears, read: lowest concentration inhibiting 80% of growth.
Setting [9] is: i.p. 1.2 mg/kg/day, treatment started 5 days after infection.
[10] abbreviates: oral 20 mg/kg/day starting the day of infection.
The mark [11] stands for this setting: oral 20 mg/kg/day, 32 days posttreatment, data not shown.

Structures are written as SMILES. ≈ marks a conversion by molar mass, not a printed value. Like-named read-outs stand apart in the source and are kept apart here.

As to `Cc1ccccc1C(=O)N/N=C/c1cc(Br)ccc1O` [BHBM, (E)-N′-(3-bromo-6-hydroxybenzylidene)-2-methylbenzohydrazide], the MIC80 with C. neoformans [1] (setting [7]) and with C. neoformans [1] (setting [8]) was 1 µg/mL (≈ 3 µM) in each case. Also, the IC50 in the series on HepG2 is 32 µg/mL (≈ 96 µM). This molecule displayed a mice that survived in the series on C. neoformans [2] (i.p. 1.2 mg/kg/day) of 50%. The “day by which all mice died” value in the series on C. neoformans [2] (setting [9]) was at most 30 days. Moreover, the “mice that survived until the end of the experiment” value with C. neoformans [2] (setting [10]) amounted to 10%. The figures for the “time up to which detected in plasma” value in series [3] (i.p. administration) and in [3] (i.v. injection) were at most 4 h and 8 h, respectively. The same molecule returned a plasma concentration in series [3] (i.v., reached within the first hour and remained for about 8 h) of 10 ng/mL.

For the molecule `O=C(N/N=C/c1cc(Br)cc(Br)c1O)c1ccc(Br)cc1` [D13], the MIC80 in the series on C. neoformans [1] (setting [7]) and in the series with C. neoformans [1] (setting [8]) was 0.06 µg/mL (≈ 0.126 µM) each time. For the same molecule, the half-inhibitory concentration (IC50) with HepG2 is above 128 µg/mL. The MIC with Candida albicans A39 was above 1 µg/mL; in the series on Candida albicans 3022 (Candida albicans, 3022, CA Flu-R), above 1 µg/mL; in the series with Candida krusei it was above 1 µg/mL; with Candida krusei ATCC 6258, above 1 µg/mL; in [4] it was 0.5 µg/mL; in series [5] it was above 1 µg/mL. Besides, the FIC score in the series on Candida albicans 3022 (D13 combined with itraconazole, C. albicans clinical isolates resistant to fluconazole) came out at 0.37. This molecule returned a mice that survived with C. neoformans [2] (i.p. 1.2 mg/kg/day) of 70%. For the same molecule, the “mice that survived until the end of the experiment” value in the series on C. neoformans [2] (setting [9]) is listed as 40%; with C. neoformans [2] (setting [10]) it was 50%. The “CFU in brains and lungs” value with C. neoformans [2] (setting [11]) was “only one D13-treated mouse showed fungal colonies and only in the lung”. Also, the “fungal cells in brains” value in the series on C. neoformans [2] (setting [11]) was “clear of fungal cells”. Moreover, in series [3] (i.p. administration), the “time up to which detected in plasma” value is listed as at least 20 h. Further, the “% remaining at 60 min” value in [6] was found to be 62.25%.
